In PMC12320831, “Synthesis and Biological Evaluation of New Chalcogen Semicarbazone (S, Se) and Their Azole Derivatives against Chagas Disease” (Journal of Medicinal Chemistry, 2024):
“And” between values parts separate entries of the source, which are not always exact repeats. Identical values can stand only once. “Also recorded” adds a separate entry of the source. Counter-ions that a name gives are not always drawn. Like-named read-outs stand apart in the source and are kept apart here.

Experiments:
[1] = DPPH radical scavenging (antioxidant) assay; conditions: for Percentage of inhibited DPPH (2 h): mean ± SEM
Method: The antioxidant capacity of the selected Se compound was tested using the DPPH assay described by Astrain-Redin. The compound was tested at three different concentrations (0.06, 0.03, and 0.015 mg/mL) and we used two positive controls: ascorbic acid (ASC) and trolox (TRO). A solution of DPPH (2,2-diphenyl-1-picrylhydrazyl) in methanol (0.04 mg/mL, preserved in the dark) was prepared and 100 μL of this stock solution was added to 100 μL of tested compound solution. The color change, from purple (radical) to yellow (reduced), was measured at 517 nm at different time points (0, 5, 15, 30, 60, 90, and 120 min). All measurements were carried out in triplicate and recorded on a BioTek PowerWave XS spectrophotometer (Biotek). Data were collected using BioTek Gen5Microplate reader and Imager software (Agilent, version 3.12). Results are expressed as a percentage of inhibited DPPH ± standard error of the mean (SEM), calculated using the following formula %inhibitedDPPH=Acontrol−Asample/Acontrol×100 where A control refers to the absorbance of the negative control and A sample refers to the absorbance of the tested compound.

[2] = target: T1, Recombinant human cathepsin L (hCatL) (Homo sapiens, UniProt P07711); assay: Human cathepsin L inhibition assay (Z-FR-AMC substrate); assay type: biochemical
T1 construct: purchased R&D Systems 952-CY
T1 sequence (P07711 114-333): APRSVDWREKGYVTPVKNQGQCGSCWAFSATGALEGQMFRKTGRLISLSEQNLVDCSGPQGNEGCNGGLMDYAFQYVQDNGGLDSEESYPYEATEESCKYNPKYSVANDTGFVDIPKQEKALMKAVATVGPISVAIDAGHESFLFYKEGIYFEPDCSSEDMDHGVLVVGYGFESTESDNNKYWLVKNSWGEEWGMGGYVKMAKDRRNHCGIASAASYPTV
Method: Compounds were screened at 10 μM. […] The experiment was performed for 30 min.
(§1) All experiments were accomplished in a 384-well black microplate, using a Synergy HTX (Biotek) plate reader at 25 °C with absorption/emission wavelengths of 360/460 nm. All assays were performed in triplicate wells and DMSO was used as a vehicle control. Enzymatic activity was measured and normalized to DMSO controls, and the inhibitor E-64 (10 μM) was used as a positive control for all assays. All experiments were performed in triplicates, with at least two independent assays (n = 6 data points). IC50 values were determined through nonlinear regression. Obtained data were treated and analyzed using GraphPad Prism 9.0 (GraphPad Software, La Jolla, California).

[3] = target: T2, recombinant Cz (cruzain) (Trypanosoma cruzi, UniProt P25779); assay: biochemical; conditions: for SICz: ratio between IC50 hCatL and IC50 Cz; for inhibition at 10 µM: read-out: Cz inhibition (%), 10 µM; for Cz inhibition (%): 10 µM
T2 construct: Cz was expressed and purified as described in da Silva et al; made in house
T2 sequence (P25779 123-337 limits assumed): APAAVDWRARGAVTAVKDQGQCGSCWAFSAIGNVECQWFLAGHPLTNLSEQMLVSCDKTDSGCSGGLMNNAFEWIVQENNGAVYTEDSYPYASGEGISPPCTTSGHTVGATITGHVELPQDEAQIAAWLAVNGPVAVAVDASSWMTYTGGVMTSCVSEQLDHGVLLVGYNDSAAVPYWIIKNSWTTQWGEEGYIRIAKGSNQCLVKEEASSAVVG
Method: The screening assay was performed using 1 nM of Cz diluted in 0.1 M sodium acetate pH 5.5, 1 mM dithiothreitol (DTT), and 0.01% Triton X-100. Cz was expressed and purified as described in da Silva et al. The reaction starts after 10 min incubating the enzyme with the compounds (10 μM), when adding 2.5 μM of the substrate Z-FR-AMC final concentration (Z-Phe-Arg-amidomethylcoumarin, Sigma-Aldrich, C9521) diluted in the same assay buffer (final volume of 30 μL). The experiment was performed for 10 min. […] The DRC was performed with at least nine different concentrations of the inhibitors, diluted by 2-fold serial dilution, ranging from […] to 10 μM.
as §1

[4] = test system: T. cruzi CAI/72 strain; assay: Antiparasitic activity in C2C12 cells infected with T. cruzi CAI/72 (image-based assay); assay type: cell-based; conditions: for EC50: mean of three experiments in triplicate (n = 9) ± SD
Method: Antiparasitic activity and cytotoxicity of compounds were determined as described before (da Silva et al., Boudreau et al.). Mouse myoblasts cell line C2C12 (ATCCCRL-1772), were maintained in high glucose (4.5 g/L glucose) Dulbecco’s modified Eagle’s medium (DMEM Gibco), supplemented with 1% penicillin–streptomycin 10,000 U/mL (Gibco) and 5% fetal bovine serum (FBS, Sigma-Aldrich) at 37 °C with 5% CO2. parasites (CAI/72 strain, DTU TcI) were maintained by weekly coinfection with C2C12 cells. For all activity assays, C2C12 cells were infected at a 10:1 parasite-to-cell ratio with culture-derived trypomastigotes, which were harvested from the supernatant of infected C2C12 cells. After adding compounds to 384-well black clear-bottom plates (Greiner cat. no. 781091), trypomastigotes (7000 parasites/well) and C2C12 cells (700 cells/well) were seeded in a total volume of 50 μL of DMEM per well in the 384-well plates. Compounds were first tested at 10 μM. […] Plates were imaged with the automated ImageXpress MicroXL microscope (Molecular Devices) and analyzed by MetaXpress software (Molecular Devices) using a custom module optimized for this assay. Infection levels (parasites per host cell) were normalized to the positive control (40 μM BNZ) and negative control (DMSO). Antiparasitic activity (EC50) ± standard deviation (SD) and host cell cytotoxicity (C2C12 viability) values were determined from the DRC using Prism software (GraphPad Software, La Jolla, CA). Every assay has three biological replicates, each in triplicates (n = 9 data points).

[5] = Host cell cytotoxicity (C2C12 viability); assay type: cell-based, Mouse; conditions: mouse; for viability at 48 h, 10 µM: < 50% viability considered cytotoxic; for CC50 at 48 h: viability calculated at 10 μM
Method: (§2) Antiparasitic activity and cytotoxicity of compounds were determined as described before (da Silva et al., Boudreau et al.). Mouse myoblasts cell line C2C12 (ATCCCRL-1772), were maintained in high glucose (4.5 g/L glucose) Dulbecco’s modified Eagle’s medium (DMEM Gibco), supplemented with 1% penicillin–streptomycin 10,000 U/mL (Gibco) and 5% fetal bovine serum (FBS, Sigma-Aldrich) at 37 °C with 5% CO2. parasites (CAI/72 strain, DTU TcI) were maintained by weekly coinfection with C2C12 cells. For all activity assays, C2C12 cells were infected at a 10:1 parasite-to-cell ratio with culture-derived trypomastigotes, which were harvested from the supernatant of infected C2C12 cells. After adding compounds to 384-well black clear-bottom plates (Greiner cat. no. 781091), trypomastigotes (7000 parasites/well) and C2C12 cells (700 cells/well) were seeded in a total volume of 50 μL of DMEM per well in the 384-well plates. Compounds were first tested at 10 μM. […] After 48 h at 37 °C and 5% CO2, plates were fixed with 4% formaldehyde solution for at least 1 h, washed with 1× PBS, and stained with 5 μg/mL of 4′,6-diamidino-2-phenylindole (DAPI) for at least 1 h prior to reading. Plates were imaged with the automated ImageXpress MicroXL microscope (Molecular Devices) and analyzed by MetaXpress software (Molecular Devices) using a custom module optimized for this assay. Infection levels (parasites per host cell) were normalized to the positive control (40 μM BNZ) and negative control (DMSO). Antiparasitic activity (EC50) ± standard deviation (SD) and host cell cytotoxicity (C2C12 viability) values were determined from the DRC using Prism software (GraphPad Software, La Jolla, CA). Every assay has three biological replicates, each in triplicates (n = 9 data points).

[6] = Compound stability (authors' observation); assay type: physicochemical; conditions: reason for discontinuation
[7] = test system: C2C12 cells; assay: Host cell cytotoxicity (C2C12 viability); assay type: cell-based, Mouse; conditions: 10 µM; < 50% viability considered cytotoxic
Method: as §2

[8] = mean of two experiments in triplicate (n = 6) ± SEM, read-out: IC50 hCatL
[9] = mean of two experiments in triplicate (n = 6) ± SEM, read-out: IC50 Cz
[10] = Trypanosoma cruzi, 10 µM, C2C12 infected cells, read-out: Anti-Tc CAI/72 activity (%)
[11] = C2C12 myoblast cells infected with trypomastigotes
[12] = no DRC performed, bound from the screen at 10 µM, read-out: IC50 hCatL
[13] = Trypanosoma cruzi, C2C12, read-out: Anti-Tc CAI/72 activity (%)
[14] = each of two biological replicates in triplicate, read-out: IC50 hCatL, single biological replicate (Figure 4)
[15] = IC50 Cz, single biological replicate (Figure 3), each of two biological replicates in triplicate
[16] = Trypanosoma cruzi, C2C12, 48 h, read-out: EC50 Tc CAI/72, intracellular amastigotes in C2C12 cells, 48 h
[17] = read-out: EC50 Tc CAI/72, intracellular amastigotes in C2C12 cells, 48 h
[18] = 10 µM, C2C12 infected cells, read-out: Anti-Tc CAI/72 activity (%)

Molecule | inhibition at 10 µM [2] [%] | IC50 [2, 8] [nM] | IC50 [3, 9] [nM] | SICz [3] | inhibition at 10 µM [3] [%] | inhibition at 10 µM [4, 10] [%] | viability at 48 h, 10 µM [5] [%] | Cz inhibition (%) [3] [%] | also measured
O=C1O[C@H]([C@@H](O)CO)C(O)=C1O [ASC, ascorbic acid] |  |  |  |  |  |  |  |  | Percentage of inhibited DPPH (2 h) ([1]; 0,03 mg/ml): 80,33 ± 0,33%; Percentage of inhibited DPPH (2 h) ([1]; 0,06 mg/ml): 80,33 ± 0,67%; time to reach the plateau of the DPPH kinetic curve ([1]; 0.015 mg/mL): 0 min; Percentage of inhibited DPPH (2 h) ([1]; 0,015 mg/ml): 65,33 ± 2,03%
C/C(=N\NC(N)=S)c1cccc([N+](=O)[O-])c1 [Compound S1h, (E)-2-(1-(3-Nitrophenyl)ethylidene)hydrazine-1-carbothioamide] | 94.5 | 190 ± 18.4 | 1.15 ± 0.74 | 164.83 | 100 | 24.8 |  |  | viability at 48 h, 10 µM [5, 11]: > 100%
C/C(=N\Nc1nc(C)cs1)c1cccc([N+](=O)[O-])c1 [Compound S2h, (E)-4-Methyl-2-(2-(1-(3-nitrophenyl)ethylidene)hydrazineyl)thiazole Hydrochloride] | 12.1 |  | 1280 ± 1120 |  | 96.9 | 28.8 |  |  | IC50 [2, 12]: > 10000 nM; viability at 48 h, 10 µM [5, 11]: > 100%
C/C(=N\Nc1nc(C)cs1)c1cccc(Cl)c1 [Compound S2i, (E)-2-(2-(1-(3-Chlorophenyl)ethylidene)hydrazineyl)-4-methylthiazole] | 24.7 |  | 142 ± 79.2 |  | 97.5 | 49.3 |  |  | IC50 [2, 12]: > 10000 nM; viability at 48 h, 10 µM [5, 11]: > 100%
C/C(=N\NC(N)=[Se])c1ccc(C#N)cc1 [Se1e, (E)-2-(1-(4-Cyanophenyl)ethylidene)hydrazine-1-carboselenoamide] |  |  |  |  | 104 |  | > 100 |  | stability of the compound [6]: stability problems; also recorded: lack of stability; inhibition at 10 µM [4, 13]: 57.1%
C/C(=N\NC(N)=[Se])c1ccc(Br)cc1 [Se1f, (E)-2-(1-(4-Bromophenyl)ethylidene)hydrazine-1-carboselenoamide] | 97.3 | 106 ± 14.9 | 14.3 ± 3.57 | 7.42 | > 85 | 69.5 | > 100 | 101.08 | IC50 [2, 14]: 91.3 nM and 121 nM; IC50 [3, 15]: 17.8 nM and 10.7 nM; EC50 [4, 16]: < 1000 nM; EC50 [4, 17]: 770 ± 170 nM; CC50 at 48 h [5]: > 10000 nM
C/C(=N\NC(N)=[Se])c1cccc([N+](=O)[O-])c1 [Se1h, (E)-2-(1-(3-Nitrophenyl)ethylidene)hydrazine-1-carboselenoamide] | 98.7 | 9.32 ± 0.38 |  | 10.22 | 104 | 41 | 97.3 |  | IC50 ([3]; IC50 Cz, mean of two experiments in triplicate (n = 6) ± SEM): 0.91 ± 0.18 nM
C/C(=N\Nc1nc(C)c[se]1)c1cccc(Cl)c1.Cl [Se2i, (E)-2-(2-(1-(3-Chlorophenyl)ethylidene)hydrazineyl)-4-methyl-1,3-selenazole Hydrochloride] | 98 | 453.7 ± 4.4 | 81.7 ± 17.9 | 5.55 | > 85 |  | > 100 | 102.55 | IC50 [2, 14]: 458 nM and 449 nM; IC50 [3, 15]: 63.8 nM and 99.5 nM; EC50 [4, 16]: < 1000 nM; inhibition at 10 µM [4, 13]: 65%; EC50 [4, 17]: 530 ± 570 nM; CC50 at 48 h [5]: > 10000 nM
Cc1c(C)c2c(c(C)c1O)CCC(C)(C(=O)O)O2 (centres unmarked) [TRO, trolox] |  |  |  |  |  |  |  |  | Percentage of inhibited DPPH (2 h) ([1]; 0,03 mg/ml): 79,33 ± 0,88%; Percentage of inhibited DPPH (2 h) ([1]; 0,06 mg/ml): 79,67 ± 0,67%; time to reach the plateau of the DPPH kinetic curve ([1]; 0.015 mg/mL): 5 min; percentage of activity in the DPPH kinetic curve ([1]; 0.015 mg/mL, kinetic curve over 2 h): 80%; Percentage of inhibited DPPH (2 h) ([1]; 0,015 mg/ml): 79,33 ± 1,33%
(E)-2-(1-(4-Cyanophenyl)ethylidene)hydrazine-1-carbothioamide [Compound S1e] |  |  |  |  |  |  |  | 98.77 | inhibition [4, 18]: 31.6%; C2C12 viability (%) [7]: >100%
(E)-2-(1-((3r,5r,7r)-Adamantan-1-yl)ethylidene)hydrazine-1-carbothioamide [Compound S1q] |  |  |  |  |  |  |  | 5.06 | inhibition [4, 18]: 38.7%; C2C12 viability (%) [7]: >100%
(E)-2-(1-(Thiophen-3-yl)ethylidene)hydrazine-1-carbothioamide [Compound S1l] |  |  |  |  |  |  |  | 62.83 | inhibition [4, 18]: 10.9%; C2C12 viability (%) [7]: >100%
